# Measured values as given in US20200246316A1, “METHODS OF TREATING POST-SURGICAL PAIN WITH A THIAZOLINE ANTI-HYPERALGESIC AGENT” (CERSCI THERAPEUTICS, INC., priority 2019, published 2020).
# Entries after “also recorded” stand apart in the source; their conditions may differ. Counter-ions that a name gives are not always drawn.
# Experiments:
# peroxynitrite (PN) = assay: Chemical-based assays of peroxynitrite (PN) oxidation; format: biochemical
# Text: In cell-based assays of PN-mediated cytotoxicity, Compound 1 is protective. […] Chemically, Compound 1 can also react stoichiometrically with peroxynitrite to form a para-nitro adduct. Without being bound by theory, by targeting and removing peroxynitrite and peroxide, Compound 1 can disrupt the ensuing cascades that lead to hypersensitivity (protein modification, ion channel hyperexcitation) thus providing a long duration event in terms of pain relief.
# [1] = system: rat hind paw incision model; assay: Brennan incisional pain model, prophylactic paradigm; format: in vivo
# Text: Two incisional pain models were used to assess Compound 1 effects on hyperalgesia. The first model is referred to as the Brennan model in which, under anesthesia, a 1 cm longitudinal incision to the skin and underlying fascia of a rat hindpaw is made. The second is a variation but is a more invasive procedure in which the skin and muscle are spread apart using forceps which creates a longer-lasting hypersensitivity.
# Using the Brennan protocol and a prophylactic paradigm, Compound 1 (3 doses given PO) or vehicle was administered 15 min prior to incision. At the 24-, 48-, and 72-h time points post-incision, mechanical thresholds were obtained (manual von Frey filament, using up/down method).
# In a subsequent experiment, the same paradigm was used with Compound 1 administered at a dose of 30 mg/kg PO along with positive control group consisting of celecoxib (30 mg/kg PO), morphine (10 mg/kg SC), and vehicle.
# mouse incisional model = assay: Mouse incisional model (mimicking the Brennan protocol); format: in vivo; conditions: 10 mg/kg IP QD, Days 1 and 3 after incision
# Protocol: In a mouse incisional model (mimicking the Brennan protocol), animals were baselined for mechanical thresholds prior to incision and then given a daily dose of Compound 1 (10 mg/kg IP QD) or vehicle for 7 days.
# [2] = system: rat models of diabetic neuropathy; assay: Rat models of diabetic neuropathy (streptozotocin- and methylglyoxal-induced); format: in vivo; conditions: mono-hydrochloride
# Text: In various embodiments, Compound 1 is efficacious in in vivo animal models of acute post-incisional hyperalgesia, both prophylactically and palliatively. […] In various embodiments, less than about 1%, 0.8%, 0.6%, 0.4%, 0.2%, 0.1%, 0.08%, 0.06%, 0.04%, 0.02%, or 0.01% of Compound 1 in blood plasma penetrates the BBB.
# OCT = biological target: T1, OCT (Homo sapiens, UniProt O15245); assay: Inhibition of uptake (SLC) transporters; format: in vitro ADME; conditions: OCT1; HEK293 cells, probe [14C]-tetraethylammonium bromide (5 μM), 0.3-600 μM tested
# T1 construct: expressed in transfected cells; host or cells: HEK293 cells
# [3] = Cytotoxicity by lactate dehydrogenase (LDH) release; format: cell-based; conditions: human, Caco-2 cells; read-out: percent cytotoxicity (LDH release)
# [4] = as above; format: cell-based; conditions: dog, MDCKII control cells, read-out: percent cytotoxicity (LDH release)
# T1 sequence (O15245 whole entry): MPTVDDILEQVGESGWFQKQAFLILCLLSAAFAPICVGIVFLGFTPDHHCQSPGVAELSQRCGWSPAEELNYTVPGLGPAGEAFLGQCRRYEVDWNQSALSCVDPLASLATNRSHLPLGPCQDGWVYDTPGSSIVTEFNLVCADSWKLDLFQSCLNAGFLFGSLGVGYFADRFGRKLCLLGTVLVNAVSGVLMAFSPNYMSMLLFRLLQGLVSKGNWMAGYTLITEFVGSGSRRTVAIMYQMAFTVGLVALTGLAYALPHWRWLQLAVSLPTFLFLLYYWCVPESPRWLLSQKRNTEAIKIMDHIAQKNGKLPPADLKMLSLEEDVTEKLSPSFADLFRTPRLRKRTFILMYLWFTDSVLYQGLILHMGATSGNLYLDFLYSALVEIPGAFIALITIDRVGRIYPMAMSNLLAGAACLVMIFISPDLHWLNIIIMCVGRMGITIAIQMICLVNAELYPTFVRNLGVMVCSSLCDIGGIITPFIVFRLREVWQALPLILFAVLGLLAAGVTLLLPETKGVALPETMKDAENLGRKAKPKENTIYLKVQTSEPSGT
smiles,measurement,setting,value
"CC1(C)SC(Nc2ccccc2O)=N[C@@H]1C(=O)O [Compound 1, (R)-2-(2-hydroxyphenylamino)-5,5-dimethyl-4,5-dihydrothiazole-4-carboxylic acid mono-hydrochloride]",PN-mediated oxidation of small-molecule organic substrates such as luminol,peroxynitrite (PN),inhibits PN-mediated oxidation
same,reversal of hyperalgesia,"[1]; 10 mg/kg PO, mono-hydrochloride",statistically significant reversal of hyperalgesia; also recorded: statistically significant effect
same,efficacy relative to vehicle,[1]; 30 mg/kg PO,full efficacy
same,dose dependence of anti-hyperalgesic effect,"[1]; 3 doses PO, 24, 48, 72 h post-incision, mono-hydrochloride",reversal of hyperalgesia in a dose-dependent manner
same,mechanical withdrawal thresholds,"[1]; 24-, 48-, 72-h post-incision, Compound 1 30 mg/kg PO, celecoxib 30 mg/kg PO, morphine 10 mg/kg SC",32 to 35 g
same,dose required for significance,"[1]; PO, single dose 15 min prior to incision",10 mg/kg
same,duration of prevention of incisional hyperalgesia,[1]; single oral dose,at least 3 days
same,duration of effect on development of hyperalgesia,"[1]; single oral dose, FIG. 10",prevented the development of hyperalgesia for three days
same,effect on development of mechanical hyperalgesia,"[1]; single pre-surgical dose, 24 h, 48 h, 72 h post dose, FIG. 11",completely prevented development of mechanical hyperalgesia out through day 3
same,hyperalgesia,mouse incisional model,not hyperalgesic
same,allodynia in models of diabetic neuropathy,[2],alleviates allodynia; also recorded: reverses allodynia
same,IC50,OCT,> 600 µM
same,cytotoxicity,[3],< 25%
same,cytotoxicity at 100 µM,[4]; 100 μM,31.3%
same,cytotoxicity at 600 µM,[4]; 600 μM,33.6%
